The target of assay [1] is Melanin-concentrating hormone receptor 1 (Homo sapiens, UniProt Q99705). Nature of the assay: Late-stage fluorescence-based counterscreen for antagonists of the G-protein coupled receptor 7 (GPR7): cell-based dose response assay to identify antagonists of the melanin-concentrating hormone receptor 1 (MCHR1). [Related pubchem assays (depositor defined):AID1861, AID1880, AID1952, AID2148, AID2251, AID2257, AID485339]. In kind it is functional. For orientation: The purpose of a counterscreen is to sort out artefacts and off-target activity.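 Also: stimulated with 30 nM MCH peptide agonist.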
Melanin-concentrating hormone receptor 1, sequence (Q99705 whole entry): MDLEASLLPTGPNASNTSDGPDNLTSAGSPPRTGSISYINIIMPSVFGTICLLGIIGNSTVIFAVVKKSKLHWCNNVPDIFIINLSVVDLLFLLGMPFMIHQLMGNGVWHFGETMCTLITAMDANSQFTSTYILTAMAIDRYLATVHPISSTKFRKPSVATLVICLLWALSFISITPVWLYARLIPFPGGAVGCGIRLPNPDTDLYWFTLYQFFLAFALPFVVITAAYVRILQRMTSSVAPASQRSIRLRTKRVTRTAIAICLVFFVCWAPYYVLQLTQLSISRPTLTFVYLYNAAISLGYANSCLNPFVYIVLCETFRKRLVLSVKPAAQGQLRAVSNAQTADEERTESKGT

Assay [2] has as its target T1, Luciferin 4-monooxygenase (Photinus pyralis, UniProt P08659). Nature of the assay: In vitro luciferase assay using purified luciferase. [Related pubchem assays: 1299, 1270, 1295, 1375, 1287, 1281, 1293, 1291, 1289, 1280, 465, 1364, 1282, 1372, 1365, 1370, 1367, 1366, 1266, 1373, 1292, 1290, 1302, 1371, 1283, 1271, 1294, 1374, 1368, 1369 ].
Assay [3] deals with HEK293. The assay is described as follows: PMA/Ionomycin-induced IL-8 production in HEK293- NF-kB-Luc stable cells. [Related pubchem assays: 1299, 1295, 1375, 1287, 1281, 1293, 1291, 1289, 1280, 465, 1364, 1282, 1372, 1365, 1367, 1366, 1266, 1269, 1373, 1292, 1290, 1302, 1371, 1283, 1271, 1294, 1374, 1368, 1369 ]. It counts as functional, cell-based. The settings on record: Homo sapiens.

Assay [4] deals with HEK293. The assay is described as follows: TNF Induced NF-kB Luciferase in 293-NF-kB-Luc Stable Cells. [Related pubchem assays: 1266, 1299, 1269, 1373, 1292, 1290, 1302, 1371, 1283, 1270, 1295, 1271, 1375, 1294, 1374, 1281, 1293, 1291, 1289, 1280, 465, 1368, 1364, 1282, 1372, 1365, 1369, 1370, 1367, 1366 ]. It counts as functional, cell-based. To be noted: Homo sapiens.
Assay [5] is described as follows: HIV-1 AD8 envelope cell-cell fusion blockers – cherry-pick, dose response (AID 652062).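 Also: luciferase signal from cell-cell fusion driven by HIV-1 clade B AD8 Env; potency is for inhibitors of fusion seen as a drop in luminescence.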 In kind it is functional, cell-based.
For assay [6], the system named is HEK293. The assay is described as follows: PMA/Ionomycin induced NF-kB luciferase assay in 293- NF-kB-Luc stable cells. [Related pubchem assays: 1299, 1270, 1295, 1375, 1287, 1281, 1293, 1291, 1289, 1280, 465, 1364, 1282, 1372, 1365, 1370, 1367, 1366, 1269, 1373, 1292, 1290, 1302, 1371, 1283, 1271, 1294, 1374, 1368, 1369 ]. It counts as functional, cell-based. To be noted: Homo sapiens.

The nature of assay [7]: blockers of HIV-1 ZM109 envelope-driven cell-cell fusion – HeLa effector, CEM target cells, luciferase, cherry-pick, dose response (AID 652058).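 Also: luciferase signal from HIV-1 Env mediated cell-cell fusion of effector and target cells.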 It counts as functional, cell-based.
Assay [8] in a line: blockers of HIV-1 envelope-mediated cell-cell fusion – cherry-pick, dose response (AID 652057). In kind it is functional, cell-based.
Assay [9] deals with Glyceraldehyde-3-phosphate dehydrogenase (Homo sapiens, UniProt P04406).
Glyceraldehyde-3-phosphate dehydrogenase, sequence (P04406 whole entry): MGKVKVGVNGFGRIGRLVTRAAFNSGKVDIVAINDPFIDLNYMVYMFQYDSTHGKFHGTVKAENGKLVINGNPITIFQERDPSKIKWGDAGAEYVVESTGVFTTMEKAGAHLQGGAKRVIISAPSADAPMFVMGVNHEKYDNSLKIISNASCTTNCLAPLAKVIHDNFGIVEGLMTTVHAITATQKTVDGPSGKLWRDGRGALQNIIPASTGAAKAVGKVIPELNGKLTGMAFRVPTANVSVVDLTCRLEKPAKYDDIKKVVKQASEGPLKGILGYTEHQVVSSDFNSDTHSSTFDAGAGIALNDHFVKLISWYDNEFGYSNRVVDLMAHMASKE
Assay [10] is described as follows: Luminescence-based counterscreen assay for KLF5 inhibitors: dose response cell-based high throughput screening assay to identify cytotoxic compounds using the IEC-6 intestinal epithelial cell line. [Related pubchem assays: 1700 (Primary screen.), 1834 (Confirmation screen.), 1858 (Summary AID.), 1905 (Counterscreen.)]. In kind it is functional.
A further assay has as its system HT-1080. Nature of the assay: HT1080 cell viability loss – fluorescence readout (AID 620). It counts as functional, cell-based. To be noted: Homo sapiens.
Assay [11] relates to HEK293. Nature of the assay: Cytotoxicity assay in HEK293 cells. [Related pubchem assays (depositor defined):AID1266, AID1269, AID1270, AID1271, AID1280, AID1281, AID1282, AID1283, AID1287, AID1289, AID1290, AID1291, AID1292, AID1293, AID1294, AID1295, AID1299, AID1302, AID1364, AID1365, AID1366, AID1367, AID1369, AID1370, AID1371, AID1372, AID1373, AID1374, AID1375, AID1384 …. The settings on record: Homo sapiens. In kind it is functional, cell-based.

A further assay addresses Protein Tat (Human immunodeficiency virus type 1 group M subtype B (isolate HXB2)(HIV-1), UniProt P04608). It counts as functional.
The target of assay [12] is T1, Luciferin 4-monooxygenase. The assay is described as follows: Counter Screen for Luciferase-based Assay Positives. [Related pubchem assays: 620, 618, 411 ].
The nature of assay [13]: off-target signal loss in HeLa-CEM21 co-culture – HeLa F-luc CTL cells, cherry-picked, counter-screen for HIV-1 Env fusion inhibitor project, dose response (AID 652040).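 Also: potency for signal decrease marking cytotoxic or nonspecific inhibition.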 In kind it is functional, cell-based.
Assay [14] has as its target T2, Runt-related transcription factor 1/Core-binding factor subunit beta (Homo sapiens, UniProt Q01196+Q13951). The assay is described as follows: Confirmation of compounds inhibiting the binding between the RUNX1 Runt domain and CBFb-SMMHC via a fluorescence resonance energy transfer (FRET) assay. [Related pubchem assays (depositor defined):AID1434, AID1438, AID1496, AID1550, AID1645]. In kind it is protein assay.

For assay [15], the target named is T2, Runt-related transcription factor 1/Core-binding factor subunit beta. The assay is described as follows: Runt domain/CBFb-SMMHC interaction disruptors – biochemical, TR-FRET (AID 1438). It counts as protein assay.
For assay [16] the target is unchanged. Nature of the assay: disruptors of Runt domain/CBFb-SMMHC interaction – biochemical, FRET, Cerulean-Runt, Venus-CBFb-SMMHC, uHTS, […] (AID 1434). In kind it is protein assay.
The target is the same in assay [17]. The assay is described as follows: Confirmation of compounds inhibiting the binding between the RUNX1 Runt domain and CBFb-SMMHC via a time resolved fluorescence resonance energy transfer (TR-FRET) assay. [Related pubchem assays (depositor defined):AID1434, AID1438, AID1496, AID1560, AID1645]. In kind it is protein assay. On the technique in general: In TR-FRET formats the signal depends on donor and acceptor labels being close together.

For another assay, the system named is Vero. Nature of the assay: viability of Vero cells under compound – cytotoxicity control for flavivirus capping enzyme inhibitors (AID 588742). It counts as functional. The settings on record: Chlorocebus sabaeus.
Another assay relates to INS1. Nature of the assay: INS-1E survival protection against cytokine death – cell-based, luminescence, retest, dose response (AID 449756).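 Also: cell death triggered by IL-1 beta plus TNF-alpha plus IFN-gamma mixture; protective hits raise ATP signal compared with cytokine alone wells.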 It counts as functional. The settings on record: Rattus norvegicus.
Assay [18] deals with Nucleotide-binding oligomerization domain-containing protein 2 (Homo sapiens, UniProt Q9HC29). The assay is described as follows: PubChem AID 2334. It counts as functional.
Nucleotide-binding oligomerization domain-containing protein 2, sequence (Q9HC29 whole entry, the tested form may be a part): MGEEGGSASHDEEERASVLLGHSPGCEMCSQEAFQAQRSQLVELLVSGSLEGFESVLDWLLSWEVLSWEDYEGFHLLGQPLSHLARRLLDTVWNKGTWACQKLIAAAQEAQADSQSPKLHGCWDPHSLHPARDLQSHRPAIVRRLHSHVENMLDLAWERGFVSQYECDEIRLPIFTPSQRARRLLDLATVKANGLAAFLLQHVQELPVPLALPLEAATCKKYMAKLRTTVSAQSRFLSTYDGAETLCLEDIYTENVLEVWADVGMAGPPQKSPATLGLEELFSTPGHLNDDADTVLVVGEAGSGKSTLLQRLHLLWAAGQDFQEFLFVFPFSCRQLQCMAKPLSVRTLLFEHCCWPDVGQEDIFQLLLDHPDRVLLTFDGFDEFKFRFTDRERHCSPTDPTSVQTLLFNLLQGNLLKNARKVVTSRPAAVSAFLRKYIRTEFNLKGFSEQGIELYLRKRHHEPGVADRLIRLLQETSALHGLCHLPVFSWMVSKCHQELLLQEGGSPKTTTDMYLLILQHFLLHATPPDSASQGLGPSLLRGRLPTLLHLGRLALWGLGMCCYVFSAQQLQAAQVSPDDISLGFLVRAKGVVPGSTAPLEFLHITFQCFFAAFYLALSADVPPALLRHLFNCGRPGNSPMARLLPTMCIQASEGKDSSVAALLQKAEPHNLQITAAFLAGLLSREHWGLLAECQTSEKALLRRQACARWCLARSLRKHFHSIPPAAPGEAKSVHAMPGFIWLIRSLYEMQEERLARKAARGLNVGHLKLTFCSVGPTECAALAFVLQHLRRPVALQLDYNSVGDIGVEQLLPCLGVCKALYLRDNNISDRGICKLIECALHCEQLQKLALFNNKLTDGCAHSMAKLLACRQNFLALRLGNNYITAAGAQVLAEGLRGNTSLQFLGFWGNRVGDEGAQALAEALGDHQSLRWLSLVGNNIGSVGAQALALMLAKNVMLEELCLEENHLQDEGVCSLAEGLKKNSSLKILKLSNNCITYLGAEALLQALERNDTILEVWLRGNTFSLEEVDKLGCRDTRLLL
Assay [19] concerns the target T3, Nucleotide-binding oligomerization domain-containing protein 1 (Homo sapiens, UniProt Q9Y239).
T3 sequence (Q9Y239 whole entry): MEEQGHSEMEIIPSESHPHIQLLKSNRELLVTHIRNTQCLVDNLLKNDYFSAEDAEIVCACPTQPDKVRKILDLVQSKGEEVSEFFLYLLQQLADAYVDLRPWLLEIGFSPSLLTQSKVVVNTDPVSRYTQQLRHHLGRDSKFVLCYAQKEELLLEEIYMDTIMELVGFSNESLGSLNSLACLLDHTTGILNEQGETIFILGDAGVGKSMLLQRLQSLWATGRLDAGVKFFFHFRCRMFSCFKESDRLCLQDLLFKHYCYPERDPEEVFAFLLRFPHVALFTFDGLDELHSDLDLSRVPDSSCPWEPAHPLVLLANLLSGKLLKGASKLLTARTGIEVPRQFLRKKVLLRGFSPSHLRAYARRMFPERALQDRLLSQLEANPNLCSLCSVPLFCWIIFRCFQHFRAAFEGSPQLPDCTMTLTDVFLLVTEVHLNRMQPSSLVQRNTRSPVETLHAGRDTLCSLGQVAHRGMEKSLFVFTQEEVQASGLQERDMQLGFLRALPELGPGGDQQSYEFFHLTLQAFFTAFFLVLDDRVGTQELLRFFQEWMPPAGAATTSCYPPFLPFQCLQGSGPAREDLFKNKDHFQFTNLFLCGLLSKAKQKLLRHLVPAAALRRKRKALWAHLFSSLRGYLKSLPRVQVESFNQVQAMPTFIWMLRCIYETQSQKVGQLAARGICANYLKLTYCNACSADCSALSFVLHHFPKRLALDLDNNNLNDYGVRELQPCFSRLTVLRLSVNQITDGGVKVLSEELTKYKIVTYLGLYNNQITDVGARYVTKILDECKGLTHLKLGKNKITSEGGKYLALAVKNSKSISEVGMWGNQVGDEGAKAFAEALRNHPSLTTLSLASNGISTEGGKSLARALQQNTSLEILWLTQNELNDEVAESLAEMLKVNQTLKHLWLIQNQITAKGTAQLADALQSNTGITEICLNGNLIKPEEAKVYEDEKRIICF
Nature of the assay: blockers of NOD1 pathway activity – revised, SAR follow-up (AID 2333). In kind it is functional.

The subject of assay [20] is HEK293. The assay is described as follows: cells. To be noted: Homo sapiens.
Another assay addresses Tumor necrosis factor (Homo sapiens, UniProt P01375). Nature of the assay: analog potency on TNFa NF-kB signaling – cell-based, revised, SAR follow-up (AID 2337). In kind it is functional.
The next assay addresses Wee1-like protein kinase (Homo sapiens, UniProt P30291). The assay is described as follows: HeLa cell cycle G2/M accumulation – FACS, mechanism study for Wee1 degradation inhibitor project, late-stage follow-up, panel member Wee1 Degradation (AID 2088).
Assay [21] concerns the target G2/mitotic-specific cyclin-B1 (Homo sapiens, UniProt P14635). Nature of the assay: HeLa cell cycle G2/M accumulation – FACS, mechanism study for Wee1 degradation inhibitor project, late-stage follow-up, panel member Cyclin B Degradation (AID 2088).

Data on five molecules can be found in ChEMBL document CHEMBL1201862, “PubChem BioAssay data set” (2004).

The structures appear in SMILES notation. The source made the active and inactive calls.

T2 sequence (Q01196 whole entry, the tested form may be a part): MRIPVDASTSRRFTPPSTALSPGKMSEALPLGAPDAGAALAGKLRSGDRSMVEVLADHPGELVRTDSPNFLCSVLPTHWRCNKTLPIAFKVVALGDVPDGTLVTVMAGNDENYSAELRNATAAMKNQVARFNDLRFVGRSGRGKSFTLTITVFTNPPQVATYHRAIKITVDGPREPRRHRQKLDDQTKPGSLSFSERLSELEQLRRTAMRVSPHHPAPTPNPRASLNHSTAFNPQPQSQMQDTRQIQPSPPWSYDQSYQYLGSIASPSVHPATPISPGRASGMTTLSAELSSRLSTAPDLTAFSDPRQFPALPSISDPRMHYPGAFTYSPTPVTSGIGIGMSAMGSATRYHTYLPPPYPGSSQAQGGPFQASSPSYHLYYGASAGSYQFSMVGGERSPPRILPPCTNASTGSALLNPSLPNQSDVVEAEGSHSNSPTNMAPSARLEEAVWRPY
T2 sequence (Q13951 whole entry, the tested form may be a part): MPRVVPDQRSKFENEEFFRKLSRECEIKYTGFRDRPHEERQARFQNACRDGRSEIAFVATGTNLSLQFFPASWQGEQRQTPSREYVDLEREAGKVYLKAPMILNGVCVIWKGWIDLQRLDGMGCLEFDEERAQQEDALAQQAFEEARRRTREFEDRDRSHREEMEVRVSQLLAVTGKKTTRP
T1 sequence (P08659 whole entry): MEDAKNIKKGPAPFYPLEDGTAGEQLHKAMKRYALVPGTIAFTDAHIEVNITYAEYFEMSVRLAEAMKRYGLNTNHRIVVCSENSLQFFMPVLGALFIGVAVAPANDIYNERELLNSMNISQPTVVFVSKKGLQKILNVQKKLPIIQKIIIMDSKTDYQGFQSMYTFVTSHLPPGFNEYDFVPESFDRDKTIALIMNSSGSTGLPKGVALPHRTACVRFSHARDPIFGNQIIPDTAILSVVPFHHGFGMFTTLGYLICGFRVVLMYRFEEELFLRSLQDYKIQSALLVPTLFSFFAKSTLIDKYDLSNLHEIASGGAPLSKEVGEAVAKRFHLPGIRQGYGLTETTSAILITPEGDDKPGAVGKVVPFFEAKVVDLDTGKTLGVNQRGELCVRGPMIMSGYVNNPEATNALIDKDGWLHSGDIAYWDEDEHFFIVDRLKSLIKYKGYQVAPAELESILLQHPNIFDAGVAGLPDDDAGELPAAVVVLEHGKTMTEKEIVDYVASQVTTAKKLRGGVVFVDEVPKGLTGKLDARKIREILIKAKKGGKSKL
Tumor necrosis factor, sequence (P01375 whole entry): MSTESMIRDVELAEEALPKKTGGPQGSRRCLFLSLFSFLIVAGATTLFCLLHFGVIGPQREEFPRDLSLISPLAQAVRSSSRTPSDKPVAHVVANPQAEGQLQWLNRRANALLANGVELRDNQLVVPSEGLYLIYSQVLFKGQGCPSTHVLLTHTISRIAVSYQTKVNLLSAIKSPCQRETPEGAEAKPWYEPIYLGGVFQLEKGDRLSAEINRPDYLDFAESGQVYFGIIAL
Protein Tat, sequence (P04608 whole entry): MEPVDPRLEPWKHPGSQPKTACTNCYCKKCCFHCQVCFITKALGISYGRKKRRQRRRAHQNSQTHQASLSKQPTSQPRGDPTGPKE
G2/mitotic-specific cyclin-B1, sequence (P14635 whole entry): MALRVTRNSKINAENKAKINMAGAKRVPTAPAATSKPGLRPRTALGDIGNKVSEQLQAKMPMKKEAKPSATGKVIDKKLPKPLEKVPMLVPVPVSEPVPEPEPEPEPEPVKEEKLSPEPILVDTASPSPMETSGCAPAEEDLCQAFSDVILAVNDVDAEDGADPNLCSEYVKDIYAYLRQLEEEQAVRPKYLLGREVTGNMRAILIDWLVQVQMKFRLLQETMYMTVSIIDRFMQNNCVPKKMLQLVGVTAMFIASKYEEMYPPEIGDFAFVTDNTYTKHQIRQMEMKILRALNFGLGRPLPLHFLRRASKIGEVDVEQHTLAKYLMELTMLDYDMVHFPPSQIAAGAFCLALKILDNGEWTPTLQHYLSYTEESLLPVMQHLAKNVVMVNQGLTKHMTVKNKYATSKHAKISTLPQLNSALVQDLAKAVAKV
Wee1-like protein kinase, sequence (P30291 whole entry): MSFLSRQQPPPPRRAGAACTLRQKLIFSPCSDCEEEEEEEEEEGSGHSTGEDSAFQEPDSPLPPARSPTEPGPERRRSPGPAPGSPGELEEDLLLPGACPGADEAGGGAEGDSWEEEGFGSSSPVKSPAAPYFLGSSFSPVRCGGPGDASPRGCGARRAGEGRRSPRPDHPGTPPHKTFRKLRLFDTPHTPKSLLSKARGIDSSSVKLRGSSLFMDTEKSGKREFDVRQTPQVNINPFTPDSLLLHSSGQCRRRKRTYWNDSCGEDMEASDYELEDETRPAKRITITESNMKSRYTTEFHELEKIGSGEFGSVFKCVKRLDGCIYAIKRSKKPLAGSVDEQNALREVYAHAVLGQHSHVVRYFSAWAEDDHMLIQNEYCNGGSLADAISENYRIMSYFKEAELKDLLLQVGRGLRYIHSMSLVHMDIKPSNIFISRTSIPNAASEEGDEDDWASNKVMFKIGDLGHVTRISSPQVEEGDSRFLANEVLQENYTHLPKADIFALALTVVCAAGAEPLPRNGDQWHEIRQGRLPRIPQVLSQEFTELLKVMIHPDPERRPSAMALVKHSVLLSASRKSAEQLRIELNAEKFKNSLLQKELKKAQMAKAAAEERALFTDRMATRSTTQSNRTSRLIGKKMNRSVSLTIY

`COC(=O)c1cnn(-c2ccc(C(C)C)cc2)c(=O)c1Oc1ccc(OC)cc1`: the IC50 in [1] is 6.9 µM (active).
As to `Cc1cc(C(=O)CN2C(=O)c3ccccc3S2(=O)=O)c(C)n1CC1CCCO1` (configuration not stated), the EC50 in [2] was > 8 µM (not active); with HEK293 [3] it was > 8 µM (not active); with HEK293 [4], 6.87 µM (not active); with HEK293 [6] it was 456 nM (active); with HT-1080, > 50 µM (not active); with HEK293 [11] it was 8.14 µM (inactive). The half-maximal effective concentration (EC50) in assay [12] is 1.17 µM (active). The AC50 was 445 nM (active) in assay [5], 1.35 µM (active) in assay [7], 287 nM (active) in [8] and 407 nM (active) in assay [13]. Moreover, the half-maximal inhibitory concentration (IC50) in assay [9] is > 100 µM (not active); in assay [10], > 39.8 µM (not active); at Protein Tat, > 100 µM (active).
As to `O=C(c1cccnc1)N(c1cc2sc(=O)oc2c2ccccc12)S(=O)(=O)c1ccccc1`, the IC50 in assay [14], in assay [15], in assay [16] and in assay [17] was > 100 µM (inactive) in each case. For the same molecule, the half-maximal cytotoxic concentration (CC50) in the assay with Vero was > 40 µM (active). Besides, in the assay with INS1, the AC50 was 6.65 µM (active).
In the case of `Cc1cc(C(=O)NC2CCCc3c2cnn3-c2ccccc2F)n(Cc2ccc(F)cc2)n1` (configuration not stated), the IC50 (in assay [18]; in assay [19]; in the assay with HEK293 [20]; at Tumor necrosis factor) was > 20 µM (inactive) each time.
As to `COc1ccc(C(=O)Nc2cc(C)nn2-c2nc(C)cc(O)n2)cc1`, the EC50 (at Wee1-like protein kinase; in assay [21]) was > 49.7 µM (inactive) throughout.

The term IC50 denotes the concentration that inhibits the measured activity by half. The term EC50 denotes the concentration at which the effect is half-maximal. The AC50 is the midpoint of the concentration-response curve, whichever way the signal moves. By CC50 is commonly meant the concentration that lowers cell viability or growth by half.
